Target: élastase pancréatique porcine (Sus scrofa, UniProt P00772)
Assay: Elastase inhibition (method of SHINOGI et al., substrate Boc-Ala-ONp)
Format: biochemical
Conditions: mass of inhibitor giving 50 % inhibition after 30 minutes; referred to the dry plant drug for plant extracts, real mass for defined principles
Description: Les dosages d'activités inhibitrices de l'élastase, de la trypsine et de l'α-chymotrypsine ont été réalisés selon la méthode de SHINOGI et al. (1), la quantité d'inhibiteur étant adaptée de manière à obtenir une inhibition voisine de 50 % (I50) après 30 minutes, les extraits étant généralement préparés à partir de 0,5 g de poudre (250) de plante sèche dans 20 ml d'éthanol à 50 % V/V, les principes définis en solution à 1 mg/ml d'éthanol à 50 % V/V.

Chain of élastase pancréatique porcine (P00772 27-266): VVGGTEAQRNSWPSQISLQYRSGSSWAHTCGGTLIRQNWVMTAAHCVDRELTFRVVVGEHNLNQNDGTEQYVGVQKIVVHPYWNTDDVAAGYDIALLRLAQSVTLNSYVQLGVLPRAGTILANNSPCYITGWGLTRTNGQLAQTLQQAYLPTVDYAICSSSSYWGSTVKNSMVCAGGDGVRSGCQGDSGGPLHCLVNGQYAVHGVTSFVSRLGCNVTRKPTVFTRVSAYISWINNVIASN

Compound | I 50 Elas-tase
C[C@@H]1O[C@@H](OC[C@H]2O[C@@H](Oc3c(-c4ccc(O)c(O)c4)oc4cc(O)cc(O)c4c3=O)[C@H](O)[C@@H](O)[C@@H]2O)[C@H](O)[C@H](O)[C@H]1O [Rutoside] | 150 µg
Acide tannique | 50 µg
O=c1c(O[C@@H]2O[C@H](CO)[C@H](O)[C@H](O)[C@H]2O)c(-c2ccc(O)c(O)c2)oc2cc(O)cc(O)c12 [Hypéroside] | 275 µg
O=c1c(O)c(-c2ccc(O)cc2O)oc2cc(O)cc(O)c12 [Morine] | 60 µg
O=C(O)c1cc(O)c(O)c(O)c1 [Acide gallique] | 100 µg

The remaining lines, values ahead:

I 50 Elas-tase | Compound
600 µg | Hamamélitanin
35 µg | Catéchine-épicatéchine
250 µg | O=c1c(O)c(-c2ccc(O[C@@H]3O[C@H](CO)[C@@H](O)[C@H](O)[C@H]3O)c(O)c2)oc2cc(O)cc(O)c12 [Quercétine 4'-Glucoside]
250 µg | Ethoxazo-rutine

From patent EP0283349A1, “Process for obtaining tannic principles of vegetable origin, cosmetologic and pharmaceutical composition containing the tannic principle obtained by the process” (Lamaison, Jean-Louis, priority 1987, dated 1988)
